Columns and labels:
cathepsin B = molecular target: T1, cathepsin B (Homo sapiens, UniProt P07858); experiment: Secreted cathepsin B activity in U87MG conditioned media; assay type: biochemical; conditions: 10 μM CA074-ME; overnight incubation
T1 construct: Levels of cathepsin B activity were also measured in U87MG CM alone or pre-incubated; endogenous in cells; host or cells: U87MG (ATCC), 3-day serum-free conditioned medium
Description: The human glioma cell line U87MG was established from surgically removed type III glioma/glioblastoma and obtained from ATCC. Cells (5×10^4 cells/ml) were plated in poly-L-lysine pre-coated dishes and grown at 37° C. in D-MEM (DME) supplemented with 100 U/ml penicillin, 100 μg/ml streptomycin and 10% heat-inactivated fetal bovine serum (FBS) (HyClone, Logan, Utah) in humidified atmosphere of 5% CO2/95% air until reached 80% confluence. Then, media were removed and the cells incubated for 3 days in serum-free DME to obtain conditioned media (CM). Conditioned media were collected and filtered (Millex-GV sterilizing filter membrane, 0.22 μm). Cells were then harvested for molecular and biochemical assays. […]

U87MG cells = experiment: U87MG growth in semi-solid (soft) agar; assay type: cell-based, human; conditions: 10 μM CA074-ME; Alamar Blue
Description: […] Approximately 15,000 cells±treatment were resuspended in 150 μl medium containing 0.3% agar, and seeded onto a well of a 24-well plate previously layered with 250 μl 0.6% agar. The solidified cell layer was covered with 50 μl DME±treatment which was replaced every three days over a 21 day period. Phase contrast images (6 fields/well) were captured using a digital video camera (Olympus U-CMT) and analyzed with Northern Eclipse v.5.0 software. Color images were transformed to grey scale, thresholded, and then converted to binary images. Number and area of colonies per field were calculated. In order to measure cell viability, at the end of the experiment, 40 μl alamar blue was added to each well and fluorescence readings were performed every 10 min for a period of 180 min. Experiments were repeated 2-3 times in triplicates.

`CCCNC(=O)[C@H]1O[C@@H]1C(=O)N[C@H](C(=O)N1CCC[C@H]1C(=O)OC)[C@@H](C)CC` [CA074-ME, reference compound] was tested, and the “inhibition of secreted cathepsin B activity in U87MG CM” value (cathepsin B) was ~40% and the “inhibition of U87MG colony formation in soft agar (efficacy)” value (U87MG cells) was ~70%.

Source: US20100279937A1, “Method of Inhibiting Angiogenesis, Tumorigenesis and Cathepsin Activity” (priority 2006, published 2010)
